In patent publication US7119229B2 (priority 2001, dated 2006):
pEC50: −log10 of the molar value. Read-outs that look alike come from different tables or passages of the source.

What was measured:
Type in all cases: cell-based
[1] = tested on: BALB/c mouse spleen cells, T cells activated with concanvalin A (ConA); experiment: Immunosuppressive effect test using BALB/c mouse spleen cells, ConA (T cells); conditions: 2 μg/ml of ConA, 72 hours, MTS, FIGS. 2 and 3
Protocol: (§1) This test was carried out to determine the immunosuppressive effect of an immunosuppressive candidate material by checking anti-proliferation of T cells and B cells. To identify the proliferation inhibitory extent, responding cells (BALB/c mouse spleen cells) were treated with an immunosuppressive candidate material, lipopolysaccharide (LPS) as a B cell activator and concanvalin A (ConA) as a T cell activator. It is known that the responding cells treated with LPS induce proliferation of B cells and those treated with ConA induce proliferation of T cells.
(§2) Responding cells (BALB/c mouse spleen cells) were seeded into each well of 96-well plates at a concentration of 2×10^5 cells/well. […] After culturing for 72 hours at a CO2 incubator, a 20 μl MTS solution was added to each well, followed by further culturing for 2 to 4 hours and measuring OD at 490 nm using ELISA.

[2] = tested on: BALB/c mouse spleen cells, B cells activated with lipopolysaccharide (LPS); experiment: Immunosuppressive effect test using BALB/c mouse spleen cells, LPS (B cells); conditions: 20 μg/ml lipopolysaccharide, 72 hours, MTS, FIGS. 2 and 3
Protocol: as §1, §2

[3] = tested on: BALB/c mouse spleen cell (responding) and DBA/2 mouse spleen cell (stimulating)
Protocol: MLR tests were carried out to determine the immunosuppressive effect of an immunosuppressive candidate material. When a responding cell (BALB/c mouse spleen cell) and a stimulating cell (DBA/2 mouse spleen cell) were cultured separately, the cells grew little. On the contrary, when the cells were simultaneously cultured, the cells were proliferated due to induction of an antigen-antibody reaction. The proliferated cells were treated with the immunosuppressive candidate material for measurement of the proliferation inhibitory extent.
After culturing for 72 hours at a CO2 incubator, a 20 μl MTS solution was added to each well, followed by further culturing for 2 to 4 hours and measuring OD at […] by using ELISA.

SKOV-3 (human ovarian) = experiment: SRB cytotoxicity assay, SK-OV-3; conditions: 72 hours, read-out: ED50 SK-OV-3
Protocol: (§3) Human tumor cells, including MCF-7 (human breast adenomatous tumor), MCF-7/DOX (adriamycin resistant cell strain), MRS-SA (human uterine sarcoma), MES-SA/DX5 (adriamycin resistant cell strain), A 549 (human non-small cell lung), SKOV-3 (human ovarian), SKMEL-2 (human melanoma), XF-498 (human CNS), HCT-15 (human colon) were incubated at 37° C. in the presence of 5% CO2 using a DMEM culture medium. The respective cells were seeded into each well of 96-well plates at a concentration of 2×10^3˜5×10^3 cells/well. […] Each cell line of the resultant plates was fixed with trichloroacetic acid (TCA), stained with 0.4% SRB solution and rinsed with 1% acetic acid. Thereafter, the dye was dissolved in 10 mM Tris base to measure the optical density (OD) at 520 nm.

[4] = tested on: MCF-7 (human breast adenomatous tumor); experiment: SRB cytotoxicity assay, MCF7; conditions: read-out: ED50 MCF7
Protocol: as §3

HCT-15 (human colon) = experiment: SRB cytotoxicity assay, HCT15; conditions: read-out: ED50 HCT15
Protocol: as §3

SKMEL-2 (human melanoma) = experiment: SRB cytotoxicity assay, SK-MEL-2; conditions: read-out: ED50 SK-MEL-2
Protocol: as §3

[5] = tested on: MCF-7/DOX (adriamycin resistant cell strain); experiment: SRB cytotoxicity assay, MCF-7/DOX; conditions: Homo sapiens, MCF7-DOX, read-out: ED50 MCF-7/DOX
Protocol: as §3

XF-498 (human CNS) = experiment: SRB cytotoxicity assay, XF498; conditions: 72 hours, read-out: ED50 XF498
Protocol: as §3

[6] = tested on: A 549 (human non-small cell lung); experiment: SRB cytotoxicity assay, A549; conditions: read-out: ED50 A549
Protocol: as §3

[7] = tested on: MES-SA (human uterine sarcoma); experiment: SRB cytotoxicity assay, MES-SA; conditions: read-out: ED50 MES-SA
Protocol: as §3

[8] = tested on: MES-SA/DX5 (adriamycin resistant cell strain); experiment: SRB cytotoxicity assay, MES-SA/DX5; conditions: Homo sapiens, read-out: ED50 MES-SA/DX5
Protocol: as §3

COc1cc2c(c(OC)c1OC)-c1ccc(SC)c(=O)cc1[C@@H](NC(=O)c1cccc(CO[N+](=O)[O-])c1)CC2 [Compound 12]
anti-proliferation of T cells [1]: remarkable anti-proliferous effect
anti-proliferation of B cells [2]: remarkable anti-proliferous effect
immunosuppressive effect [3]: good immunosuppressive effect
pEC50 (SKOV-3 (human ovarian)): 9.52
pEC50 ([4]; MCF7, 72 h): 10.70
pEC50 (HCT-15 (human colon); HCT-15, 72 h): 10.00
pEC50 (SKMEL-2 (human melanoma); SK-MEL-2, 72 h): 10.00
pEC50 ([5]; 72 h): 7.55
pEC50 (XF-498 (human CNS)): 9.70
pEC50 ([6]; A549, 72 h): 10.00
pEC50 ([7]; 72 h): 11.00
pEC50 ([8]; MES-SA/Dx5, 72 h): 6.94

CC(=O)O[C@H]1C(=O)[C@@]2(C)[C@H]([C@H](OC(=O)c3ccccc3)[C@]3(O)C[C@H](OC(=O)[C@H](O)[C@@H](NC(=O)c4ccccc4)c4ccccc4)C(C)=C1C3(C)C)[C@]1(OC(C)=O)CO[C@@H]1C[C@@H]2O [Taxol, reference compound]
pEC50 (SKOV-3 (human ovarian)): 8.92
pEC50 ([4]; MCF7, SRB, 72 hours): 10.40
pEC50 (HCT-15 (human colon); HCT-15, SRB, 72 hours): 10.00
pEC50 (SKMEL-2 (human melanoma); SK-MEL-2, SRB, 72 hours): 10.00
pEC50 ([5]; SRB, 72 hours): 6.03
pEC50 (XF-498 (human CNS)): 8.77
pEC50 ([6]; A549, SRB, 72 hours): 9.52
pEC50 ([7]; SRB, 72 hours): 10.70
pEC50 ([8]; MES-SA/Dx5, SRB, 72 hours): 5.94
